Test results reported in patent publication US7879853B2, “4,6-disubstituted pyrimidines and their use as protein kinase inhibitors” (Bayer Schering Pharma AG, priority 2004, dated 2011).

Columns and labels:
MDA-MB-468 cells = experiment: Cellular proliferation/cytotoxicity assay (Alamar Blue), MDA-MB-468; format: cell-based; conditions: Homo sapiens; MDA-MB-468, 48 hours, Alamar Blue (Resazurin); read-out: Anti-proliferative/cytotoxic activity: IC50 MDA468
Description: (§1) The anti-proliferative activity of the compounds as described herein, is evaluated using MCF7 and MDA-MB-468 (ATCC HTB-22 and HTB-132) cell lines and the Alamar Blue (Resazurin) cell viability assay (O'Brien et al. Eur J Biochem 267, 5421-5426, 2000). Resazurin is reduced to the fluorescent rescrufin by cellular dehydrogenase activity, correlating with viable, proliferating cells. Test compounds are dissolved as 10 mM solutions in DMSO and subsequently diluted. MCF7 or […] cells were seeded into 96 well flat bottom plates at a density of 10000 cells/well (MCF7) or 5000 cells/well (MDA-MB-468) in a volume of 200 μl/well. 24 hours after seeding, 1 μl each of the compound dilutions are added into each well of the 96 well plates. Each compound dilution is tested as at least as duplicates. Wells containing untreated control cells were filled with 200 μl DMEM containing 0.5% v:v DMSO. The cells are then incubated with the substances for 48 hours at 37° C. in a humidified atmosphere containing 5% carbon dioxide. To determine cell viability, 20 μl of a Resazurin solution (Sigma; 90 mg/l) are added. After 4 hours incubation at 37° C. the fluorescence is measured at an extinction of 544 nm and an emission of 590 nm (Wallac Victor2; Perkin Elmer, USA). For the calculation of the cell viability the emission value from untreated cells is set as 100% viability and the emission rates of treated cells are set in relation to the values of untreated cells. Viabilities are expressed as % values. The corresponding IC50 values of the compounds for cytotoxic activity are determined from the concentration-effect curves by means of non-linear regression. The analysis of the data is performed using a biostatistical program (GraphPad Prism, USA).

[1] = biological target: T1, Akt1 (full-length Akt1, inactive) (Homo sapiens, UniProt P31749); experiment: Biochemical Akt1 (inactive) assay (full-length Akt1), IMAP, PDK1-dependent activation; conditions: activation by PDK1 with PIP3 vesicles, 50 μM ATP, 60 min. at room temperature; read-out: Inhibition of Akt1 activation (full-length Akt1, inactive): IC50
T1 construct: recombinant full-length human Akt1 a containing N-terminal His6 tag; His6 (N); purchased Upstate, UK #14-279; host or cells: baculovirus infected Sf21 insect cells
Description: The enzyme is purified using Ni2+/NTA-agarose (Upstate, UK; #14-279).
The enzyme is purified using Ni2+/NTA-agarose.
PDK1-dependent activation and subsequent enzymatic activity of Akt1: Activity of purified human Akt1 is routinely measured in an assay in which the enzyme is first activated by PDK1 in the presence of phosphatidylinositol-3,4,5-triphosphate (PIP3). Once activated, Akt1-dependent phosphorylation of a fluorescence labelled peptide substrate is measured by fluorescence polarisation using the IMAP technology (Molecular Devices).
The phospholipids are prepared as follows: 5 mg DOPC/DOPS are solved in 200 μl 10 mM Tris (pH 7.4) and 300 μg PIP3 are resuspended in 950 μl 10 mM Tris (pH 7.4) by pipetting. 950 μl solved PIP3 are mixed with 50 μl solved DOPC/DOPS and incubated for 2 h at a temperature below 20° C. Then the mixture is subjected to sonification for 30 min. at max. power until a translucent phopholipid vesicle preparation is obtained. Aliquots of the vesicle suspension are frozen at −80° C. until needed, likewise the solved DOPC/DOPS.
Assays are performed in 384-well plates. Incubations are carried out for 60 min. at room temperature. The reaction buffer mixture contains in a final volume of 25 μl: 10 mM Tris pH 7.4, 10 mM MgCl2. 1 mM DTT, and 0,1 mg/ml BSA. In contrast the activation buffer contains: 50 ng/well Akt1, 20 ng/well PDK1, 1.25 μM peptide substrat, 50 μM ATP, and phospholipid vesicles (1:20). Test compounds are added from stock solutions in DMSO before activation of Akt1 by PDK1. After the incubation the beads (IMAP binding reagent; Molecular Devices; 1:167) are added and the fluorescence polarization is measured (excitation 485 nm, emission 530 nm). The analysis of the data is performed using a biostatistical program.

[2] = biological target: T2, Akt1 (full-length Akt1, active) (Homo sapiens, UniProt P31749); experiment: Biochemical Akt1 (active) assay (full-length Akt1), flashplate, Crosstide; conditions: Crosstide substrate, 100 nM ATP, 60 minutes at 30° C.; read-out: Akt1 inhibition (full-length Akt1, active): IC50
T2 construct: recombinant full-length human Akt1, containing N-terminal His6 tag; His6 (N); GST (alternative statement of the assay paragraph) (N); purchased Upstate, UK #14-276; host or cells: baculovirus infected Sf21 insect cells
Excerpt: For the biochemical Akt1 assay recombinant full-length human Akt1, containing N-terminal His6 tag was cloned and expressed in baculovirus infected Sf21 insect cells. Akt1 is activated with GST-MAPKAP-K2 and PDK1, and repurified on Ni2+/NTA-agrose and glutathioneagarose (Upstate, UK; #14-276).
In order to study the inhibition of Akt1 (full-length version) according to the invention, a flashplate-based assay has been developed.
The full-length Akt1 assay is a biochemical assay using Akt1 N-terminally fused to GST and co-expressed with PDK1 in insect cells. The Akt1 assay is run in 96 well plates by incubating 500 ng/well GST-Akt1, 1 μM Crosstide (N-terminally biotinylated synthetic peptide (KGSGSGRPRTSSFAEG) Upstate, #12-385) as substrate, 10 μl of test compound (test compounds were dissolved as 10 mM solutions in dimethylsulfoxide (DMSO) and subsequently diluted) and 100 nM ATP (including ^33P-ATP) in 100 μl of reaction buffer (50 mM HEPES, pH7.5; 3 mM MgCl2; 3 mM MnCl2; 3 μM Na-Orthovanadat; 1 mM DTT; 1 μg/ml PEG8000) for 60 minutes at 30° C. in 96 well microtiter plates. The reactions are terminated by adding 100 μl stopping buffer (5M NaCl, 35 mM EDTA pH 8,0) for 5 minutes. 190 μl of the reaction mixture are transferred into streptavidin-coated Flashplates (Perkin Elmer, #SMP-103) and incubated for further 30 minutes at room temperature. The plates are washed 3 times by using washing buffer (0.9% NaCl). Relying on the incorporation of ^33P into the peptide substrate crosstide, the detection is based on the specific binding of the biotinylated peptide to the streptavidin-coated surface of scintillator-coated flash plates (NEN, USA; #SMP-103). This phosphorylation is measured by counting the plate for 60 sec. using a plate reader (Wallac Microbeta; Perkin Elmer, USA). The analysis of the data is performed using a biostatistical program (GraphPad Prism, USA).

MCF7 cells = experiment: Cellular proliferation/cytotoxicity assay (Alamar Blue), MCF7; format: cell-based; conditions: Homo sapiens; MCF7, 48 hours, Alamar Blue (Resazurin); read-out: Anti-proliferative/cytotoxic activity: IC50 MCF7
Description: as §1

GST-ΔPH-Akt1 = biological target: T3, GST-ΔPH-Akt1 (Homo sapiens, UniProt P31749); experiment: Biochemical ΔPH Akt1 assay (flashplate, 33P-ATP, histone 2B); conditions: GST-ΔPH-Akt1, histone 2B substrate, 100 nM ATP, 80 minutes at 30° C.; read-out: Akt inhibition: IC50 (inhibition of deltaPHAkt1)
T3 construct: named GST-deltaPH-Akt1; 107480aa; cloned in the pAcG1 vector; made in house; host or cells: SF9 insect cells (pAcG1 vector), co-expressed with PDK1
Excerpt: For the biochemical assay ΔPHAkt1 was used devoid of its PH domain as a GST fusion protein (named GST-deltaPH-Akt1; 107480aa; cloned in the pAcG1 vector (BD Biosciences Pharmingen)), co-expressed with PDK1 in SF9 insect cells. The protein was purified using glutathion-affinity chromatography by standard protocols.
In order to study the inhibition of Akt according to the invention, a flashplate-based assay has been developed.
The Akt1 assay is a biochemical assay using Akt1 devoid of its PH domain and co-expressed with PDK1 in insect cells. The GST-ΔPH-Akt1 assay is run in 96 well plates by incubating 100 ng/well GST-ΔPH-Akt1, 100 ng/well histone 2B (Roche, #223514) as substrate, 10 μl of compound of invention (test compounds were dissolved as 10 mM solutions in dimethylsulfoxide (DMSO) and subsequently diluted) and 100 nM ATP (including ^33P-ATP) in 100 μl of reaction buffer ([…], pH7.5; 3 mM MgCl2; 3 mM MnCl2; 3 μM Na-Orthovanadat; 1 mM DTT; 1 μg/ml PEG8000) for 80 minutes at 30° C. The reactions are terminated by adding 100 μl stopping buffer (2% H3PO4 for 5 minutes) and are washed 3 times by using washing buffer (0.9% NaCl). Relying on the incorporation of ^33P into the protein substrate histone 2B, the detection is based on the adhesion of the phosphorylated protein to the surface of scintillator-coated flash plates (NEN, USA; #SMP-200). This phosphorylation is measured by counting the plate for 60 sec. using a plate reader (Wallac Microbeta; Perkin Elmer, USA). The analysis of the data is performed using a biostatistical program (GraphPad Prism, USA).

T2 sequence (P31749 whole entry): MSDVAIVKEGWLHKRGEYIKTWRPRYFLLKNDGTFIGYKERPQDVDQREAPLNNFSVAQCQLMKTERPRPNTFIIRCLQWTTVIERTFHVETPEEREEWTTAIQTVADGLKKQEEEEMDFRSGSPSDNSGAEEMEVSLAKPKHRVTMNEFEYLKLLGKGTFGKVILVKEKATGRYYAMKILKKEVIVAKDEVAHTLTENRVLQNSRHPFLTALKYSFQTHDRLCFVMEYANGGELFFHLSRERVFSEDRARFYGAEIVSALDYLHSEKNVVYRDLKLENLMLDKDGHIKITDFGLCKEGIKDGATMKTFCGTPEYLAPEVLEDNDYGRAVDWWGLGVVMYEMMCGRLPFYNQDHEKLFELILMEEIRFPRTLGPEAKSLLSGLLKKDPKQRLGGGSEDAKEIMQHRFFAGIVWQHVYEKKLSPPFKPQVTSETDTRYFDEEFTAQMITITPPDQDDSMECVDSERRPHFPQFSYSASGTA
T1 sequence (P31749 whole entry): as above
T3 sequence (P31749 107-480 limits assumed, stated change not applied): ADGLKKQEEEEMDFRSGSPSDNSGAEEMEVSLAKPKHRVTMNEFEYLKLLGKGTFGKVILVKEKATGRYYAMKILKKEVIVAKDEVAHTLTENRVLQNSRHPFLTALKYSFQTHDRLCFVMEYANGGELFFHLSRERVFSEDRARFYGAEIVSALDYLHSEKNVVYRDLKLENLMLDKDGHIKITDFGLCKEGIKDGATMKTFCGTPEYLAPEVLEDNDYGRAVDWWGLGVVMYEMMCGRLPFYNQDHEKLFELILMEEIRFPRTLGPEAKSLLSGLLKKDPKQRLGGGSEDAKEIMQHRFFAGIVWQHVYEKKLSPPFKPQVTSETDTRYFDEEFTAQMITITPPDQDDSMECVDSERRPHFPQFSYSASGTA

IC50 [1] [µM]	IC50 [2] [µM]	melting point [°C]	IC50 (GST-ΔPH-Akt1) [µM]	SMILES	IC50 (MDA-MB-468 cells) [µM]	IC50 (MCF7 cells) [µM]
≤ 4.4	≤ 1.75	155 to 165	–	NCc1ccc(C(=O)Nc2ccc(Nc3cc(-c4cccc5c4oc4ccccc45)ncn3)cc2)cc1.O=C(O)C(F)(F)F [Compound 49, 4-Aminomethyl-N-[4-(6-dibenzofuran-4-yl-pyrimidin-4-ylamino)-phenyl]-benzamide trifluoroacetate]	≤ 6.05	≤ 16.6
≤ 4.4	≤ 1.75	114	≤ 5	NCc1ccc(C(=O)Nc2cccc(Nc3cc(-c4cccc5c4oc4ccccc45)ncn3)c2)cc1.O=C(O)C(F)(F)F [Compound 57, 4-Aminomethyl-N-[3-(6-dibenzofuran-4-yl-pyrimidin-4-ylamino)-phenyl]-benzamid trifluoroacetate]	–	–
–	≤ 1.75	183 to 186	–	NCc1cccc(C(=O)Nc2ccc(Nc3cc(-c4cccc5c4oc4ccccc45)ncn3)cc2)n1 [Compound 73, 6-Aminomethyl-pyridin-2-carbonsäure-[4-(6-dibenzofuran-4-yl-pyrimidin-4-ylamino)-phenyl]-amide]	–	–
